How the values were obtained:
[1] = molecular target: Serine/threonine-protein kinase B-raf [V600E] (Homo sapiens, UniProt P15056, V600E); assay: Biochemical Assay; settings: pH 7.5; 25 °C
Description: (§1) Compounds were prepared in DMSO at 10mmol/L and serially diluted in a 96-well plate as the source plate. The intermediate plate consists of 4µL from the source plate mixed with 96µL of 1× kinase buffer (50mmol/L HEPES, pH 7.5; 10mmol/L MgCl2; 1mmol/L EGTA; 0.01% Brij-35). Of 2.5µL was transferred to a 384-well assay plate in duplicates. To the assay plate, 5µL of BRAF 7nmol/L or BRAF V600E 0.7nmol/L, 2.5µL of substrate solution containing Fluorescein-MAP2K1 0.8µmol/L and ATP (for BRAF 2µmol/L, for BRAF V600E 6µmol/L) were added and the assay plate was incubated with the compounds for 1 h at room temperature. The reaction was stopped with the addition of 10µL of detection solution (antibody 4nmol/L and EDTA 20mmol/L in antibody dilution buffer) to each well of the assay plate.

[2] = molecular target: Serine/threonine-protein kinase B-raf (Homo sapiens, UniProt P15056); assay: Biochemical Assay; settings: pH 7.5; 25 °C
Chain of Serine/threonine-protein kinase B-raf (P15056 whole entry): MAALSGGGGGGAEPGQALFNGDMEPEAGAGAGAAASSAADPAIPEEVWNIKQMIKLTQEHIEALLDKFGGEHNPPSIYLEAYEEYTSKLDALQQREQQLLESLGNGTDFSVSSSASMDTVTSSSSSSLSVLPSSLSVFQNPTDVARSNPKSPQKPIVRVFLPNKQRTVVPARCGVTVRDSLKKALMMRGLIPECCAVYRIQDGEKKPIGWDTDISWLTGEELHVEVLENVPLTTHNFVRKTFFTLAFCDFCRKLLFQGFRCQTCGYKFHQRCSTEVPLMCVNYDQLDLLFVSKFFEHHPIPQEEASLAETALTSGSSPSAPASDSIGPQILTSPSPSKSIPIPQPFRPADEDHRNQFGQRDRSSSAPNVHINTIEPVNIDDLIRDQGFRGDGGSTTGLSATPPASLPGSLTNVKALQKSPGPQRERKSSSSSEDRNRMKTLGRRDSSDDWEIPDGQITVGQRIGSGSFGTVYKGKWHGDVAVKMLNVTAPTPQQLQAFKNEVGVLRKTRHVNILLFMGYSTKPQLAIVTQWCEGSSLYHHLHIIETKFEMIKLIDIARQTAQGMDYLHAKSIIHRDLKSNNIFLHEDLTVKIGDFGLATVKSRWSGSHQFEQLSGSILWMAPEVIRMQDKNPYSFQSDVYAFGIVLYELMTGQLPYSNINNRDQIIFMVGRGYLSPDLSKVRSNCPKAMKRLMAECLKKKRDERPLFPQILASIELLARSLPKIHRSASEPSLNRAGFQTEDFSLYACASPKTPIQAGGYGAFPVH
Description: as §1

Chain of Serine/threonine-protein kinase B-raf [V600E] (P15056 2-766 V600E limits assumed): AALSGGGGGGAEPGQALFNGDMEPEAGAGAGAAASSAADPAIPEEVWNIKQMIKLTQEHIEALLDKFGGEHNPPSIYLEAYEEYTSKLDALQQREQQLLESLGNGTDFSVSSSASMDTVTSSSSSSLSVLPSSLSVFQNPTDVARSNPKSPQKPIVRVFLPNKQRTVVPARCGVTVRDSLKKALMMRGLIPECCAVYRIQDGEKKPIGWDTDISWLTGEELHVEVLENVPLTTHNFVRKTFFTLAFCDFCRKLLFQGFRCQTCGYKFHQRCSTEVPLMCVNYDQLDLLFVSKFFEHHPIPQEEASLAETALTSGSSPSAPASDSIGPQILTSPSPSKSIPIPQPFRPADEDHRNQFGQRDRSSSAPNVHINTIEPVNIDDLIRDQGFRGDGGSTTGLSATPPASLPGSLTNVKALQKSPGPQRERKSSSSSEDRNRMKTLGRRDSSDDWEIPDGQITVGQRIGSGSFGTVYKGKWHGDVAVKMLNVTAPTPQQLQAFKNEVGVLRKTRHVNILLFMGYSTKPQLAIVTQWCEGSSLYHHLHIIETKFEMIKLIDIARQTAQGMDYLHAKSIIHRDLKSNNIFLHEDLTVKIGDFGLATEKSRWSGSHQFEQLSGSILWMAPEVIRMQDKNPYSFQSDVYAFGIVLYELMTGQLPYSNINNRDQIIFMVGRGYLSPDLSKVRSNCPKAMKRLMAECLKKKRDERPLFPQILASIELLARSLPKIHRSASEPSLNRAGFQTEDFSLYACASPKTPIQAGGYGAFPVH

IC50 [1] [nM] | IC50 [2] [nM] | Compound
626 | 1070 | Cc1nc(Nc2cccc(NC(=O)Nc3ccc(F)c(Cl)c3)c2)cc(N2CCOCC2)n1 [1-(3-Chloro-4-fluorophenyl)-3-(3-(2-methyl-6-morpholinopyrimidin-4-ylamino)phenyl)urea (Compound 2)]
298 | 722 | Cc1nc(Cl)cc(Nc2cccc(NC(=O)Nc3ccc(Cl)c(C(F)(F)F)c3)c2)n1 [1-(3-(6-Chloro-2-methylpyrimidin-4-ylamino)phenyl)-3-(4-chloro-3-(trifluoromethyl)phenyl)urea (Compound 1)]
4990 | 5280 | Cc1nc(N2CCN(C)CC2)cc(N(C)c2cccc(NC(=O)Nc3ccc(Cl)c(C(F)(F)F)c3)c2)n1 [1-(4-Chloro-3-(trifluoromethyl)phenyl)-3-(3-(methyl (2-methyl-6-(4-methylpiperazin-1-yl)pyrimidin-4-yl)amino)phenyl)urea (Compound 7)]
7170 | > 10000 | Cc1nc(Nc2cccc(NC(=O)Nc3ccc(Cl)c(C(F)(F)F)c3)c2)cc(N2CCN(C)CC2)n1 [1-(4-Chloro-3-(trifluoromethyl)phenyl)-3-(3-(2-methyl-6-(4-methylpiperazin-1-yl)pyrimidin-4-ylamino)phenyl)urea (Compound 4)]
1370 | 1370 | Cc1nc(N2CCOCC2)cc(N(C)c2cccc(NC(=O)Nc3ccc(Cl)c(C(F)(F)F)c3)c2)n1 [1-(4-Chloro-3-(trifluoromethyl)phenyl)-3-(3-(methyl (2-methyl-6-morpholinopyrimidin-4-yl)amino)phenyl)urea (Compound 6)]
232 | 366 | Cc1nc(N2CCOCC2)cc(N(C)c2cccc(NC(=O)Nc3ccc(F)c(Cl)c3)c2)n1 [1-(3-Chloro-4-fluorophenyl)-3-(3-(methyl (2-methyl-6-morpholinopyrimidin-4-yl)amino)phenyl)urea (Compound 5)]

Compound | IC50 [1] [nM] | IC50 [2] [nM]
Cc1nc(Nc2cccc(NC(=O)Nc3ccc(Cl)c(C(F)(F)F)c3)c2)cc(N2CCOCC2)n1 [1-(4-Chloro-3-(trifluoromethyl)phenyl)-3-(3-(2-methyl-6-morpholinopyrimidin-4-ylamino)phenyl) urea (Compound 3)] | 142 | 271
